What was measured:
[1] = test system: Aβ25-35-treated primary cortical neurons; assay: Cortical neuron survival assay with amyloid-beta peptide insult (MTT); assay type: cell-based, rat; details: 50 μM, except GAG-C69 at 30 μM; Aβ25-35 10 μM (FIG. 19)
Method: FIG. 4. […] After overnight incubation, the MTT assay was performed. Cell survival was calculated as a percentage compared to vehicle control (“CTL no Abeta”).
Exogenous addition of amyloid beta peptide (Aβ) initiates cell death of neuronal cultures via apoptosis.
(§1) The cells were then incubated with test samples and amyloid-beta peptide fragment 25-35 (Aβ, 10 μM, Sigma) in growth medium. A tetrazole, 3-(4,5-Dimethylthiazol-2-yl)-2,5-diphenyltetrazolium bromide (MTT, 5 mg/ml) was added to the medium at a ratio of 1:10 after 24-hr incubation. MTT is reduced by living cells into purple formazan and further solubilized in 20% SDS solution; therefore, the colored solution was measured by spectrophotometer and cell viability was quantified.

[2] = test system: NMDA receptor-induced excitotoxicity in primary cortical neuronal cells; assay: NMDA survival assay (LDH release); details: 30-50 μM pre-treated 2 hours, NMDA 20 min (FIG. 17)
Method: Embryonic rat cortical neurons (11 DIV) were pre-treated with various concentrations of AG—0 (0.1 -30 μg/mL) and then co-incubated with NMDA (20 μM). After 20 min, the medium was replaced with fresh medium, and after overnight incubation lactate dehydrogenase (LDH) released into the medium was measured. Cell death was calculated as a percentage compared to solvent control (“CTL without NMDA”). Assays were conducted in duplicate and repeated at least twice. *=P<0.05.
Cortical neurons were plated on 48-well plate (Nunc) at a density of 1.1×10^5 cells per well and cultured for 11-12 days (11-12 DIV). Neurons were pre-treated with the test compounds for 2 hours prior to N-Methyl-D-Aspartate (NMDA, Sigma) or glutamate (MSG, Sigma) treatment. Briefly, the neurons were rinsed with Locke's solution (5 mM potassium chloride, 128 mM sodium chloride, 2.7 mM calcium chloride, 1 mM di-sodium hydrogen orthophosphate, 5 mM HEPES and 10 mM glucose in Milli-Q water) without Mg^2+, followed by incubation in Locke's solution with addition of glycine (0.1 μM) for 15 minutes. After the incubation, the neurons were co-treated with the test compound (dissolved in Locke's plus glycine solution) and NMDA (20 μM) or glutamate for 20 min. Neurons were then rinsed with Locke's solution containing Mg^2+ and replaced with fresh growth medium. Cell death was assayed and quantified using the lactate dehydrogenase release assay (Cytotoxicity Detection Kit, Roche). Data was compared to a DMSO vehicle control and represented in mean±SEM. The student t-test was used for statistical analysis.

[3] = test system: rat cortical neurons cultured in the absence of B27; assay: Cortical neuron survival assay with B27 withdrawal (MTT); assay type: cell-based; details: for cell survival of cortical neurons in the absence of B27 (MTT): 30 μM, pre-treated 24 hours (FIG. 15); for concentration showing neuroprotective effect in the absence of B27 (MTT): primary cortical neurons 7DIV, dose-dependent study 1-30 μM
Method: FIG. 2. Adelostemma gracillimum refined fraction promotes rat cortical neuron survival against B27 withdrawal. Cortical neurons isolated from embryonic day 18 rats were cultured in Neurobasal medium supplemented with 2 % B27. […] A MTT assay was performed 24 hours later. Cell survival is presented as a percentage compared to a DMSO control in the presence of B27 (“CTL with B27”). Assays were conducted in triplicate and repeated at least twice. *=P<0.05.
Primary cortical neurons were cultured in Neurobasal medium and supplemented with B27, a proprietary formula of Life Technologies. The combination of Neurobasal medium and B27 provides a stable growth environment for primary neurons to maturity in vitro. Neurons undergo apoptosis or cell death in the absence of B27. To study the neuroprotective effect of Adelostemma gracillimum refined fraction, neurons of 7DIV were treated with AG-0 and cell survival was measured as mitochondrial activity by the MTT assay.
as §1, with “washed with Hanks' solution twice and replaced” for “incubated”, “that were serial diluted” for “and amyloid-beta peptide fragment 25-35 (Aβ, 10 μM, Sigma)”, “Neurobasal” for “growth”, “a 2-day” for “24-hr”

[4] = test system: cyclic AMP response (CRE) element; assay: CRE-dependent transcription assay (luciferase); assay type: cell-based, rat; details: hippocampal neurons 12DIV, 50 μM, 6 hours
Method: FIG. 41. GAG compounds enhance CRE-dependent transcription activity. GAG-C14 (a), GAG-C53 (b), GAG-C63 (c), GAG-C69 (d), GAG-C84 (e), GAG-C111 (f), GAG-C122 (g), GAG-C123 (h), and GAG-C129 (i) induce CRE-dependent transcriptional activity in cultured hippocampal neurons. On the day of cell seeding, hippocampal neurons were transfected with a firefly luciferase reporter plasmid containing cyclic AMP response (CRE)-element. The cells at 12 DIV were then treated with 50 μM of AG compounds for 6 hours. Data are mean±SEM (n=3-4), *=P<0.05, **=P<0.01, and ***=P<0.005 versus vehicle-treated cells (0 μM), student's t test.
Cultured hippocampal neurons were transfected with a firefly luciferase reporter plasmid containing a cyclic AMP response (CRE) element. At 12DIV, the cells were treated with 50 μM of compound for 6 hours, then CRE-dependent transcription activity was assayed by measuring luciferase levels.
Freshly isolated embryonic cortical neurons were transfected with a luciferase reporter gene (Cre-Luc) linked to CREB activation following the ACM lipofectamine method using Lipofectamine 2000, a cationic liposome based reagent (Invitrogen). […] Transfection was performed using 1 μL Lipofectamine 2000 and 0.4 μg DNA per well. Neurons were then treated with test samples for time periods of 6 hours. After treatment, the cells were washed with ice-cold DPBS and 100 μL of 1× luciferase lysis buffer (Promega) was added. The plates were placed in −20° C. to freeze the cells, after which they were thawed to facilitate lysis. The lysates were transferred onto white bottom plates and assayed for renilla luciferase using the luciferase assay kit (Promega). Increased CREB activation in the neurons leads to an enhanced luciferase production and this was quantified using a Promega GloMax™ 96 microplate luminometer. […] BDNF and rolipram were used as positive controls.

[5] = test system: phosphorylated ERK, CREB, Akt, P38, MEK in cortical neurons; assay: Western blot detection of signaling proteins in cortical neurons; assay type: cell-based, rat; details: cortical neurons 7DIV

Compound | cell survival of cortical neurons treated with Aβ25-35 (MTT) [1] | neuronal survival following NMDA treatment (LDH) [2] | other results
3-O-β-D-Cymaropyranose-(1→4)-β-D-Digitoxopyranose-12-trans-cinnamyl-20-acetyl-8,14-seco-sacrostin [GAG-C30] | promoted cell survival | – | –
12-O-cis/trans-cinnamoyl-20-acetyl-8,14-seco-sarcostin 3-O-β-D-Cymaropyranosyl-(1→4)-β-D-Cymaropyranosyl-(1→4)-β-D-Digitoxopyranosyl-(1→4)-β-D-Cymaropyranosyl-(1→4)-β-D-Oleandropyranoside [GAG-C104] | promoted cell survival | promoted neuronal survival | –
12-O-cis/trans-cinnamoyl-20-acetyl-8,14-seco-sarcostin 3-O-β-D-Cymaropyranosyl-(1→4)-β-D-Cymaropyranosyl-(1→4)-β-D-Oleandropyranosyl-(1→4)-β-D-Oleandropyranoside [GAG-C96] | – | promoted neuronal survival | –
12-O-cis/trans-cinnamoyl-20-acetyl-8,14-seco-sarcostin 3-O-β-D-Cymaropyranosyl-(1→4)-β-D-Digitoxopyranosyl-(1→4)-β-D-Oleandropyranosyl-(1→4)-β-D-Oleandropyranoside [GAG-C102] | – | promoted neuronal survival | –
12-O-cis/trans-cinnamoyl-20-acetyl-8,14-seco-sarcostin 3-O-β-D-Cymaropyranosyl-(1→4)-β-D-Oleandropyranosyl-(1→4)-O-D-Oleandropyranoside [GAG-C90] | – | promoted neuronal survival | –
12-O-cis/trans-cinnamoylsacrostin 3-O-β-D-Cymaropyranosyl-(1→4)-β-D-Oleandropyranosyl-(1→4)-β-D-Oleandropyranoside [GAG-C86] | – | promoted neuronal survival | –
C/C=C/c1ccc(OC(C)C(O)c2ccc(O)c(O)c2)c(OC)c1 (stereo not shown) [GAG-C13, 3,4,7-trihydroxyl-3′-methoxy-(7′E)-(8-O-4′)-neolignan-7′-en] | promoted cell survival | promoted neuronal survival | cell survival of cortical neurons in the absence of B27 (MTT) [3]: promoted cell survival
COc1cc(C2Oc3c(OC)ccc(C(C)=O)c3C2C)ccc1O (stereo not shown) [GAG-C51, 3-methoxyl-4,4′-dihydroxy-1″-athanone-3′7-epoxy-8,2″-neolignane] | – | promoted neuronal survival | –
C/C=C/c1cc(O)c(OC(C)C(O)c2cc(OC)c(O)c(OC)c2)c(OC)c1 (stereo not shown) [GAG-C59, 4,5′,7-trihydroxy-3, 3′,5-trimethyoxyl-hydroxy-(7′E)-(8-O-4)-neolignan-7′ en] | promoted cell survival | – | –
COc1cc(C2c3cc(OC)c(O)cc3C3Oc4c(C(C)=O)ccc(O)c4CC3C2CO)ccc1O (stereo not shown) [GAG-C61, 4-hydroxy-3′-methoxy-(7′E)-5′7-epoxy-8,4′-oxyneolignane-7′ en] | – | promoted neuronal survival | –
C[C@]12CC[C@H]3[C@@H](C=CC4=CC(=O)CC[C@@]43C)[C@@H]1CC(C(=O)O)C2 (stereo partly shown) [GAG-C63, 4,6-diene-16-carboxylic acid-3-oxo-androstane] | – | – | CRE-dependent transcription activity (luciferase) [4]: enhances CRE-dependent transcription
CC1CC(C)(C)C2C=C(CC/C=C/C1=O)C(=O)O2 (stereo not shown) [GAG-C65, 8-oxohumula-2, 6(E)-dien-1,12-olide] | – | promoted neuronal survival | –
COc1cc([C@@H]2c3cc(OC)c(O)cc3C=C(C)[C@H]2C)ccc1O [GAG-C70, (7′α,8′β)-4,4′-dihydroxyl-3,3′-dimethyoxyl-6,7′-cycloligane-7-en] | promoted cell survival | promoted neuronal survival | ERK phosphorylation ([5]; 0.1-10 μM, 15 min (FIGS. 16, 18, 20)): induced ERK phosphorylation
CC1(C)CC[C@@]2(C(=O)O)CC[C@]3(C)C(=CCC4[C@@]5(C)CCC(O)C(C)(CO)C5CC[C@]43C)C2C1 (stereo partly drawn) [GAG-C74, 3β,23-dihydroxyolean-12-en-28-oic acid] | promoted cell survival | – | –
COc1cc(C)cc(C(O)C(O)c2cc(C)ccc2OC)c1 (stereo not shown) [GAG-C80, 2-(2-methoxy-5-methylphenyl)-1-(3-methoxy-5-methylphenyl)-ethane-1,2-diol] | – | – | cell survival of cortical neurons in the absence of B27 (MTT) [3]: promoted cell survival; concentration showing neuroprotective effect in the absence of B27 (MTT) [3]: 10 to 30 µM
CC(C)=CCOc1c2occc2cc2ccc(=O)oc12 [GAG-C81, 8-(3-methylbut-2-enyloxy)-psoralen] | – | – | cell survival of cortical neurons in the absence of B27 (MTT) [3]: promoted cell survival; neuroprotective effect in the absence of B27 (MTT) ([3]; 1-50 μM): exhibited neuroprotective effects in a dose-dependent manner
COc1c2ccoc2c(OCC=C(C)C)c2oc(=O)ccc12 [GAG-C82, 8-(3-methylbut-2-enyloxy)-5-methoxyl-psoralen] | – | – | cell survival of cortical neurons in the absence of B27 (MTT) [3]: promoted cell survival
COC1CC(OC2C(C)CC(OC3C(C)OC(OC4CC[C@@]5(C)C(=CC[C@]6(O)C5C[C@@H](OC(=O)C=Cc5ccccc5)[C@@]5(C)[C@]6(O)CC[C@@]5(O)C(C)=O)C4)CC3OC)CC2OC)OC(C)C1O (stereo partly drawn) [GAG-C87, Ikemagenin 3-O-β-D-Cymaropyranosyl-(1→4)-β-D-Oleandropyranosyl-(1→4)-β-D-Oleandropyranoside] | – | promoted neuronal survival | –
COC1CC(OC2C(C)OC(OC3C(C)OC(OC4C(C)OC(OC5CC[C@@]6(C)C(=CC[C@]7(O)C6C[C@@H](OC(=O)/C=C(\C)C(C)C)[C@@]6(C)[C@]7(O)CC[C@@]6(O)C(C)=O)C5)CC4OC)CC3OC)CC2OC)OC(C)C1O (stereo partly drawn) [GAG-C92, Caudatin 3-O-β-D-Cymaropyranosyl-(1→4)-β-D-Cymaropyranosyl-(1→4)-β-D-Oleandropyranosyl-(1→4)-β-D-Oleandropyranoside] | – | promoted neuronal survival | –
C/C=C/c1ccc(OC(C)C(O)c2cc(OC)c(O)c(OC)c2)c(OC)c1 (stereo not shown) [GAG-C121, 3,3′,5-trimethoxy-4,7-dihydroxyl-(7′E)-(8-O-4′)-neolignan-7′en] | promoted cell survival | – | –
(K)-methyl 15-hydroxy-15-methoxy-12-oxopentadec-13-enoate [GAG-C78] | – | – | cell survival of cortical neurons in the absence of B27 (MTT) [3]: promoted cell survival; concentration showing neuroprotective effect in the absence of B27 (MTT) [3]: 10 to 30 µM; ERK phosphorylation time course ([5]; 30 μM): significantly induced ERK phosphorylation in cortical neurons from 15 min and persistently to 180 min; CREB phosphorylation ([5]; 30 μM, 15 min of incubation): induced CREB phosphorylation
